# Like-named read-outs stand apart in the source and are kept apart here.
# Key:
# PTP1B = target: T1, PTP1B (Homo sapiens, UniProt P18031); assay: PTPase assay, GST-fusion PTP domain of PTP1B, DiFMUP substrate; type: biochemical
# T1 construct: The GST fusion PTP domains of SHP1 and PTP1B were expressed and purified in a fashion similar to that of SHP2; GST; made in house
# T1 sequence (P18031 3-277 limits assumed): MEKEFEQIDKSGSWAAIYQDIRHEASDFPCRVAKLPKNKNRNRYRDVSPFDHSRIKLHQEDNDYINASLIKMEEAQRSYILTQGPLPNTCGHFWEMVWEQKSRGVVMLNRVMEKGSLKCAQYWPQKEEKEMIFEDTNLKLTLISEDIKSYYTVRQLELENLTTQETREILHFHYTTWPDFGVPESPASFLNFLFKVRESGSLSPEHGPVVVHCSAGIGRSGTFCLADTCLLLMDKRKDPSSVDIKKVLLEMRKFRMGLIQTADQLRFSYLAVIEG
# Procedure: After completion of synthesis, both CNBCA and CNBBA were purified on silica gel, and purity was determined by HPLC. The purified compounds were then tested for their effect on the SHP2 enzyme activity and on the activity of the selected control PTPs (SHP1 and PTP1B) by the phosphotyrosyl phosphatase (PTPase) assay as described previously.[30],[31] First, the GST fusion of the PTP domains of SHP2, SHP1, and PTP1B were produced and purified as reported by us previously.[32] The reactions were performed in a buffer containing 10 mM Tris-HCl (pH 7.2), 100 mM NaCl, 1 mM EDTA, 1 mM dithiothreitol (DTT), and 0.01% Tween-20. […] The complete mixture was incubated at 37 °C for 20 min, and fluorescence intensity was measured by the Synergy 4 plate reader at the excitation and emission wavelengths of 360 and 460 nm, respectively. The half inhibitory concentration (IC50) value of each compound was calculated and plotted using Graphpad Prism software. […]
# We used the PTPase assay described previously[30],[31] to evaluate the effect of the newly synthesized compounds on the enzymatic activity of SHP2, SHP1, and PTP1B. […] The mixtures were incubated at 37 °C for 20 min and transferred to 96 well plates, and the fluorescence intensity was measured by a Synergy 4 plate reader at the excitation and emission wavelengths of 360 and 460 nm, respectively. […]
# MDA-MB468 cells = assay: Basal pAkt and pERK1/2 signaling by immunoblotting in MDA-MB468 cells; type: cell-based; settings: Homo sapiens, MDA-MB-468; MDA-MB468, 48 h treatment, band density pAkt and pERK1/2; read-out: IC50 for SHP2 mediated Akt and ERK1/2 activation
# Procedure: (§1) Since SHP2 is an essential mediator of mitogenic and cell survival signaling in breast cancer cells, we determined the effect of CNBCA treatment on activation of ERK1/2 and Akt in the HER2-positive BT474 and in the triple-negative MDA-MB468 cell lines. Cells growing in 2D culture were treated with varying concentrations of CNBCA, ranging from 0.250 to 2.0 μM, for 48 h, and total cell lysates were analyzed by immunoblotting (IB) with antibodies that recognize the activated forms of ERK1/2 (pERK1/2) and Akt (pAkt).
# BT474 cells = assay: Basal pAkt and pERK1/2 signaling by immunoblotting in BT474 cells; type: cell-based; settings: Homo sapiens, BT-474
# Procedure: as §1
smiles,measurement,setting,value
"CCCCCCCCCOc1ccc(-c2ccc(C(=O)O)cc2)cc1CCCC(=O)O [CNBCA, 3′-(3-carboxypropyl)-4′-(nonyloxy)-[1,1′-biphenyl]-4-carboxylic acid]",IC50,"PTP1B; PTP domain, 1 nM enzyme, 10 μM DiFMUP",25 µM
same,selectivity ratio PTP1B versus SHP2,PTP1B; SHP2 IC50 as reference,28.73 fold
same,IC50,MDA-MB468 cells,~1 µM
same,IC50,"BT474 cells; BT474, 48 h treatment, band density pAkt and pERK1/2, read-out: IC50 for SHP2 mediated Akt and ERK1/2 activation",~1 µM
same,IC50,"BT474 cells; BT474 cells, read-out: concentration that provided a 50% inhibition of SHP2 mediated signaling",0.5 µM
